Experimental data reported in patent US7732485B2, “Treatment of cancer” (The University of Manchester, priority 2003, dated 2010).

What was measured:
[1] = tested on: A2780/mcp8; experiment: Comet assay, DNA crosslinking; format: cell-based, human; settings: ratio >1 = more cross-linking in parental than in platinum-resistant line
Method: (§1) Preliminary studies have been carried out to investigate the mechanism underlying this increased sensitivity. These studies were carried out using the Comet assay (described in Appendix C), which measures damage to DNA. The results are shown in FIGS. 1 (cisplatinum), 2 (carboplatinum), 3 to 8 (compounds A-F) and 9 (phenylgoldtriphenylphospine, PAuP).
(§2) Table 3 illustrates the results of the following calculation using the DNA cross-linking results obtained in the Comet assays:
(§3) DNA damage was measured by the single cell gel electrophoresis (SCGE) assay or “Comet assay”, originally developed by Ostling and Johnson^8. This is a method for determining the extent of DNA damage and repair capacity within individual cells.^9-11 It has previously been shown that this technique can be used to investigate the mechanism of action of different DNA damaging agents.^12
(§4) Cells were trypsinised, suspended in 0.5 ml of ice cold fresh medium and transferred into plastic 24-well dishes prior to embedding in agarose. For the cross-linking studies treated and control samples were chilled on ice (to prevent any repair of DNA damage) and irradiated to a dose of 20 Gy in a Caesium-137 source (0.4 Gy/min). Control, (unirradiated, non-drug treated cells) were maintained on ice in the same manner as treated samples.
(§5) Glass microscope slides, frosted at one end, were pre-coated with 1% normal agarose in distilled water. These slides were allowed to air dry overnight prior to use. A 1% low melting point agarose (LMP) mixture in PBS was melted and held at 45° C. 1 ml of LMP was then added to 0.5 ml of cell suspension on ice and the resultant mixture was pipetted onto a pre-coated glass microscope slide and allowed to set for 1-2 minutes before being transferred to an ice tray. The slides were immersed in ice cold lysis solution (100 mM EDTA, 10 mM Tris-HCl, 1% Triton ×100, 1% DMSO, 2.5M NaCl) for 1 hr, and washed three times by immersion in fresh double distilled water for 15 minutes.
(§6) Slides were then placed onto a flat bed electrophoresis tank and covered (5-6 mm) with alkali unwinding solution (50 mM NaOH, 1 mM EDTA buffered to pH 12.5) and left under subdued lighting for 45 minutes to allow the DNA to unwind before being subjected to electrophoresis at 0.6V/cm for 25 minutes. Each slide was rinsed with 2×1 ml of 0.4M Tris-HCl, pH 8.0 and allowed to dry in air. The dried slides were then rehydrated for 20 minutes with double distilled water, 2×1 ml of propidium iodide solution (2.5 μg/ml) was added and staining was allowed to proceed for 15 minutes. Slides were then immersed in 1 litre of double distilled water for 1 hour to reduce excess background staining. The slides were cover slipped and then examined at 250× magnification under an epifluorescent microscope (Zeiss-Jenamed) using green light from a 50 watt mercury source with a 580 nm reflector and a 590 nm barrier filter set. Images were captured using an attached Sony HAD-1 interline CCD camera and Komet software analysis package (Kinetic Imaging). Twenty-five images from each of two duplicate slides were captured and analysed and the individual “comet moments” as defined by Olive et al^13, were calculated. The total fluorescence of the image represents the amount of DNA present and the length of the image, measured in pixels, represents the length of migration of the DNA. The head and tail areas of the image were identified and the intensity of each was determined. The tail moment is calculated by multiplying the fraction of DNA present in the tail by half the length of the tail.

[2] = tested on: A2780carb; experiment: Comet assay, DNA crosslinking; format: cell-based, human; settings: ratio >1 = more cross-linking in parental than in platinum-resistant line
Method: as §1, §2, §3, §4, §5, §6

[3] = tested on: A2780cis; experiment: Comet assay, DNA crosslinking; format: cell-based, human; settings: ratio >1 = more cross-linking in parental than in platinum-resistant line
Method: as §1, §2, §3, §4, §5, §6

[4] = tested on: A2780mcp1; experiment: Comet assay, DNA crosslinking; format: cell-based, human; settings: ratio >1 = more cross-linking in parental than in platinum-resistant line
Method: as §1, §2, §3, §4, §5, §6

[5] = tested on: ccu24; experiment: Comet assay, DNA crosslinking; format: cell-based, human; settings: ratio >1 = more cross-linking in parental than in platinum-resistant line
Method: as §1, §2, §3, §4, §5, §6

[6] = tested on: cor123; experiment: Comet assay, DNA crosslinking; format: cell-based, human; settings: ratio >1 = more cross-linking in parental than in platinum-resistant line
Method: as §1, §2, §3, §4, §5, §6

[7] = tested on: L1210; experiment: Comet assay, DNA crosslinking; format: cell-based, murine; settings: ratio >1 = more cross-linking in parental than in platinum-resistant line
Method: as §1, §2, §3, §4, §5, §6

[8] = tested on: A2780-S cell line; experiment: Growth inhibition assay (modified MTT); format: cell-based, human; settings: five-day MTT
Method: (§7) The sensitivities of the cell lines to cisplatinum, carboplatinum, and compounds A-F were determined using a growth inhibition assay which was a modified version of the MTT method (modified version of MTT method described in Appendix B).
(§8) The following is a brief description of the eleven different cell lines used in the growth inhibition assay: • The A2780 cell line (1 in FIGS. 1-9) is a human ovarian cell line which is sensitive to cisplatinum and carboplatinum. […] The cor123/cpr (7) cell line is a modified version of the cor123 cell line which has been modified to be resistant to cisplatinum and carboplatinum. • The ccu24 (8) cell line is an epithelial ovarian cancer cell line, developed at the Christie Hospital from a tumour biopsy, and the ccu24/cpr (9) cell line is a modified version of this cell line which is cisplatinum and carboplatinum resistant. • L1210 (10) is a murine leukemia cell line and L1210/M1140 (11) is its platinum drug resistant subline.
(§9) The cell toxicity studies were performed using a modification of the method MTT.^7 The principle of the assay is to assess the growth inhibitory effect of a drug at various doses over a five-day time course. This assay was performed in 96-well microtitre plates. Cells were seeded at densities of 400-1,000 cells per well, depending on the doubling time of the cell line. All cell dilutions were performed in growth medium containing 10% FCS (foetal calf serum).
(§10) Compounds under investigation were dissolved in DMSO (dimethylsulphoxide). Serial dilutions of compound were made into the cell suspension, ensuring that the proportion of DMSO remained below 0.5%. 200 μl of cells and drug mix was added to the 96-well plates in triplicate. The plates were incubated for five days at 5% CO2 and 37° C. After this time, the plates were removed from the incubator and 50 μl of a 3 mg/ml solution of MTT [3-(4,5-dimethyl-thiazol-2-yl)-2,5-diphenyl tetrazolium bromide] was added to each well and incubated in the same conditions for another 3 hours. The medium from each well was aspirated and the formazan crystals were solubilised in 200 μl of DMSO. The plates were read using a Multiskan platereader at 540 nm and 690 nm. Growth inhibition curves were constructed using mean and standard deviation of the triplicate absorbance values and from these curves the IC50 values were calculated.

[9] = tested on: A2780carb cell line; experiment: Growth inhibition assay (modified MTT); format: cell-based, human; settings: for IC50: A2780carb, five-day MTT
Method: as §7, §8, §9, §10

[10] = tested on: A2780cis cell line; experiment: Growth inhibition assay (modified MTT); format: cell-based, human; settings: for IC50: A2780cis, five-day MTT
Method: as §7, §8, §9, §10

[11] = tested on: ccu24 cell line; experiment: Growth inhibition assay (modified MTT); format: cell-based, human; settings: five-day MTT
Method: as §7, §8, §9, §10

[12] = tested on: ccu24/cpr cell line; experiment: Growth inhibition assay (modified MTT); format: cell-based, human; settings: five-day MTT
Method: as §7, §8, §9, §10

[13] = tested on: cor123 cell line; experiment: Growth inhibition assay (modified MTT); format: cell-based, human; settings: five-day MTT
Method: as §7, §8, §9, §10

[14] = tested on: cor123/cpr cell line; experiment: Growth inhibition assay (modified MTT); format: cell-based, human; settings: five-day MTT
Method: as §7, §8, §9, §10

[15] = tested on: mcp1 cell line; experiment: Growth inhibition assay (modified MTT); format: cell-based, human; settings: five-day MTT
Method: as §7, §8, §9, §10

[16] = tested on: mcp8 cell line; experiment: Growth inhibition assay (modified MTT); format: cell-based, human; settings: five-day MTT
Method: as §7, §8, §9, §10

[17] = tested on: L1210 cell line; experiment: Growth inhibition assay (modified MTT); format: cell-based, murine; settings: five-day MTT
Method: as §7, §8, §9, §10

[18] = tested on: L1210/M1140 cell line; experiment: Growth inhibition assay (modified MTT); format: cell-based, murine; settings: five-day MTT
Method: as §7, §8, §9, §10

[19] = Table 1, first series of assays
[20] = Table 2, further series of assays
[21] = Table 1, first series of assays, mcp1
[22] = Table 2, further series of assays, A2780/mcp1
[23] = Table 1, first series of assays, mcp8
[24] = Table 2, further series of assays, A2780/mcp8

Row | Molecule | DNA crosslinking (Comet) ratio [1] | DNA crosslinking (Comet) ratio [2] | DNA crosslinking (Comet) ratio [3] | DNA crosslinking (Comet) ratio [4] | DNA crosslinking (Comet) ratio [5] | DNA crosslinking (Comet) ratio [6] | DNA crosslinking (Comet) ratio [7] | IC50 [8, 19] [nM] | IC50 [8, 20] [nM] | IC50 [9, 19] [nM] | IC50 [9, 20] [nM] | IC50 [10, 19] [nM] | IC50 [10, 20] [nM] | IC50 [11, 19] [nM] | IC50 [11, 20] [nM] | IC50 [12, 19] [nM] | IC50 [12, 20] [nM] | IC50 [13, 19] [nM] | IC50 [13, 20] [nM] | IC50 [14, 19] [nM] | further results
1 | [Au(η2-C6H4CH═NC6H5)Cl2] [Au (III), reference compound] | 0.69 | 0.71 | 0.67 | 0.72 | 0.78 | 0.83 | 0.54 | – | – | – | – | – | – | – | – | – | – | – | – | – | –
2 | [Au][c]1ccc[c]([Au])c1.c1ccc(P(c2ccccc2)c2ccccc2)cc1.c1ccc(P(c2ccccc2)c2ccccc2)cc1 [B] | 0.39 | 0.37 | 0.36 | 0.40 | 0.39 | 0.38 | 0.47 | 9.8 | 12.1 | 0.4 | 0.7 | 0.2 | 0.6 | 18.7 | 21.8 | 2.1 | 5.1 | 12.6 | 15.8 | 1.2 | IC50 [14, 20]: 4.3 nM; IC50 [15, 21]: 0.4 nM; IC50 [15, 22]: 3.5 nM; IC50 [16, 23]: 0.4 nM; IC50 [16, 24]: 5.4 nM; IC50 [17, 19]: 26.6 nM; IC50 [17, 20]: 29.6 nM; IC50 [18, 19]: 4.1 nM; IC50 [18, 20]: 7.2 nM
3 | c1ccc([PH]([Au][c]2cc[c]([Au][PH](c3ccccc3)(c3ccccc3)c3ccccc3)cc2)(c2ccccc2)c2ccccc2)cc1 [A, 1,4-bis-(triphenylphospinogold(I))benzene] | 0.60 | 0.53 | 0.50 | 0.59 | 0.40 | 0.56 | 0.69 | 13.4 | 16.5 | 0.6 | 0.9 | 0.2 | 0.5 | 25.3 | 28.3 | 3.6 | 6.4 | 19.3 | 22.2 | 1.5 | sensitivity of A2780carb relative to parental A2780-S line ([9]; from IC50 0.6 nM vs 13.4 nM): over twenty-times more sensitive; sensitivity of A2780cis relative to parental A2780-S line ([10]; from IC50 0.2 nM vs 13.4 nM): over sixty-times more sensitive; IC50 [14, 20]: 4.5 nM; IC50 [15, 21]: 0.5 nM; IC50 [15, 22]: 3.5 nM; IC50 [16, 23]: 0.6 nM; IC50 [16, 24]: 4.6 nM; IC50 [17, 19]: 38.3 nM; IC50 [17, 20]: 41.6 nM; IC50 [18, 19]: 6.4 nM; IC50 [18, 20]: 9.2 nM
4 | c1ccc([PH]([Au][CH2]c2cccc[c]2[Au][PH](c2ccccc2)(c2ccccc2)c2ccccc2)(c2ccccc2)c2ccccc2)cc1 [F] | 0.56 | 0.61 | 0.52 | 0.54 | 0.60 | 0.62 | 0.53 | 20.4 | 24.3 | 7.3 | 10.4 | 5.4 | 8.3 | 22.1 | 26.4 | 9.5 | 12.2 | 28.2 | 31.1 | 11.4 | IC50 [14, 20]: 14.6 nM; IC50 [15, 21]: 6.3 nM; IC50 [15, 22]: 10.4 nM; IC50 [16, 23]: 5.3 nM; IC50 [16, 24]: 11.4 nM; IC50 [17, 19]: 28.1 nM; IC50 [17, 20]: 31.2 nM; IC50 [18, 19]: 11.4 nM; IC50 [18, 20]: 14.4 nM
5 | c1ccc([PH]([Au][c]2cccc[c]2[Au][PH](c2ccccc2)(c2ccccc2)c2ccccc2)(c2ccccc2)c2ccccc2)cc1 [Compound C] | 0.41 | 0.36 | 0.36 | 0.38 | 0.37 | 0.38 | 0.71 | 12.8 | 15.2 | 0.5 | 0.8 | 0.3 | 0.6 | 20.2 | 23.2 | 3.3 | 6.3 | 14.4 | 17.6 | 1.4 | IC50 [14, 20]: 4.4 nM; IC50 [15, 21]: 0.5 nM; IC50 [15, 22]: 3.5 nM; IC50 [16, 23]: 0.5 nM; IC50 [16, 24]: 4.6 nM; IC50 [17, 19]: 42.7 nM; IC50 [17, 20]: 45.8 nM; IC50 [18, 19]: 5.2 nM; IC50 [18, 20]: 8.4 nM
